Results: article PMC5695697 (Cell chemical biology, 2017)

Tests used:
[1] = tested on: PGRN protein; type: cell-based, human
[2] = 2010, cited from earlier work
[3] = tested on: recombinant human Class I HDACs (HDAC1, HDAC2, HDAC3); assay: In vitro HDAC enzymatic assay with varied pre-incubation time; type: biochemical; settings: pre-incubation 0–3 hours, Figure S5
[4] = tested on: GRN mRNA; assay: GRN mRNA expression by qPCR in human iPSC-derived NPCs and neurons; type: cell-based
[5] = tested on: H3K9 acetylation; assay: H3K9 acetylation Western blot in human NPCs and neurons; type: cell-based; settings: ACY-1215 5 μM, tubastatin A 10 μM, CI-994 10 μM, Cpd-60 5 μM (Figure S1)
[6] = tested on: H3K27 acetylation on GRN promoter; assay: H3K27 acetylation ChIP-qPCR on GRN promoter/enhancer region in NPCs; type: cell-based, human; settings: 24 hours, panobinostat 0.5 μM, CI-994 10 μM; for H3K27 acetylation in ChIP Region 3: to varying levels
[7] = tested on: FXN mRNA; assay: FXN; type: cell-based, human; settings: 18-day neurons, 24 h; SAHA 10 μM, CI-994 10 μM, Cpd-60 5 μM
[8] = tested on: HDAC; settings: ref Schroeder et al., 2013; Chou et al., 2008; cited from earlier work
[9] = tested on: MSR293 cells; assay: GRN mRNA / PGRN expression in MSR293 cells; type: cell-based, human; settings: MSR293 cells (HEK293 derivative), Figure S3
[10] = human NPCs, CI-994 for up to 72 hours
[11] = human neurons, CI-994 10 μM, 24 h

CCCC(CCC)C(=O)O [valproate, valproic acid]
increase of PGRN protein expression compared to vehicle ([1]; cultured NPCs and neurons, valproate at doses lower than 1 mM (Figure S8)): 1.3–1.5 × | serum concentration ([2]; chronic treatment, ref Kalu): 300 to 700 µM | Cmax ([2]; read-out: brain concentration Cmax, estimated, ref Goldenberg): 400 µM | change of potency with prolonged incubation (in vitro kinetic profile) [3]: did not increase

O=C(NCC1(c2nc(-c3ccccc3)cs2)CCOCC1)c1cccc(-c2noc(C(F)(F)F)n2)c1 [TMP269]
increasing GRN mRNA in NPCs ([4]; NPCs only (Figure S2)): not effective

CN1CCc2c(c3ccccc3n2Cc2ccc(C(=O)NO)cc2)C1 [Tubastatin A]
H3K9 acetylation [5]: robust effect

CCC(=O)CCCCC[C@@H]1NC(=O)[C@H]2CCCCN2C(=O)[C@H]([C@@H](C)CC)NC(=O)[C@H](Cc2cn(OC)c3ccccc23)NC1=O [apicidin]
change of potency with prolonged incubation (in vitro kinetic profile) [3]: did not increase

Cc1[nH]c2ccccc2c1CCNCc1ccc(/C=C/C(=O)NO)cc1 [panobinostat]
H3K27 acetylation in ChIP Region 1 on the GRN promoter [6]: significantly increased | H3K27 acetylation in ChIP Region 2 [6]: Neither compound treatment increased | H3K27 acetylation in ChIP Region 3 [6]: increased

CC(=O)Nc1ccc(C(=O)Nc2ccccc2N)cc1 [CI-994]
H3K27 acetylation in ChIP Region 2 [6]: Neither compound treatment increased | H3K27 acetylation in ChIP Region 3 [6]: increased | FXN (frataxin) mRNA levels [7]: significantly increased | intracellular PGRN ([1]; NPCs, CI-994 10 μM, 24 h): decrease | secreted PGRN ([1]; NPCs, CI-994 10 μM, 24 h): decrease | PGRN secreted protein expression, longer treatment times ([1]; NPCs, CI-994 10 μM, longer treatment times, vs vehicle): decreased | PGRN protein levels, extended treatment [1, 10]: did not significnatly enhance | intracellular PGRN protein [1, 11]: statistically significant decrease | binding kinetics, mechanism of action [8]: slow-on/slow-off | H3K9 acetylation [5]: significantly increase | change of potency with prolonged incubation (in vitro kinetic profile) [3]: slow-binder | GRN mRNA levels, extended treatment [4, 10]: did not significnatly enhance | GRN mRNA [4, 11]: statistically significant decrease | upregulating GRN mRNA or PGRN [9]: ineffective

O=C(CCCCCCNC(=O)c1cnc(N(c2ccccc2)c2ccccc2)nc1)NO [ACY-1215]
H3K9 acetylation [5]: as strong of an induction

O=C(CCCCCCC(=O)Nc1ccccc1)NO [SAHA]
FXN (frataxin) mRNA levels [7]: does not | upregulating GRN mRNA or PGRN [9]: effective
